Bridge positions count the residues as written; N and C are the ends. Ends that are not written are not given here.
Key:
[1] = test system: K562 cells; assay: Trypan blue dye exclusion assay; assay type: cell-based, human; conditions: K562, 1×10^6 cells/ml, serum-free RPMI-1640, first 3 h of incubation
Protocol: Living cells exclude the dye, so that their cytoplasm remains clear. When damaged cells take up the dye, it binds to intracellular proteins and renders them a blue color. Cells suspended to a concentration of 1 × 10^6 per ml in RPMI-1640 medium (serum-free) were incubated with various concentrations of the peptides of interest for various periods of time at 37°C and 5% CO2. Then they were stained with 0.2% trypan blue dye solution in PBS for 3 min at room temperature, and dead and living cells were counted using a hemocytometer. Percentage of viable cells was calculated as follows:
(3) Viable cells (%) =total number of viable cells/total number of cells×100%,
Experiments were repeated three times before plotting time-killing curves. For each time point, data are presented as mean with standard deviation (SD).

[2] = test system: K562 cells; assay: Annexin V-Cy3 apoptosis detection assay; assay type: cell-based, human; conditions: K562, 2 h incubation with peptide, Annexin-Cy3.18/6-CFDA staining
Excerpt: Annexin V-Cy3 Apoptosis Detection kit (Sigma, USA) was used to distinguish between cells dying via necrosis and cells entering apoptosis. This kit includes a combination of red and green fluorescent dyes; 6-Carboxyfluorescein diacetate (6-CFDA) is hydrolyzed by esterases inside viable (still functional) cells, producing the green fluorescent compound 6-carboxyfluorescein. Annexin-Cy3.18, giving red fluorescence, binds to phosphatidylserine which only becomes exposed in the outer leaflet of the plasma membrane for cells entering the apoptotic process, or if the plasma membrane is damaged during necrosis. Thus, living cells are only stained green, necrotic ones are only stained red, while cells in the early stages of apoptosis are stained by both dyes.
To assess the effects of the peptides, cells were incubated in their presence for 2 h under the same conditions as described for trypan blue assay. […] After 10 min incubation at room temperature cells were washed from excess dyes with 1 × binding buffer and analyzed under the luminescent microscope (Leica DM2500, Leica Microsystems, Germany). […] The resulting percentage of viable, apoptotic, and necrotic cells are shown as mean with SD, calculated based on three independent experiments.

[3] = test system: E. coli ML-35p; assay: Broth microdilution assay (MIC); assay type: cell-based, Escherichia coli; conditions: 50% MH broth/50% 10 mM Na-P buffer pH 7.4 with 0.1% BSA, 1×10^6 CFU/ml, 20 h, median of 3–6 independent experiments in triplicate
Protocol: The minimal inhibitory concentrations (MIC) of peptides were determined using microdilution assay in Müller–Hinton (MH) broth in general accordance with the guidelines of the European Committee for Antimicrobial Susceptibility Testing. Test plates were additionally pretreated with 0.1% bovine serum albumin (BSA) in distilled H2O (incubated for 1 h at 37°C) to reduce possible non-specific binding of peptides to the plastic surface of the wells, as proposed for AMP activity measuring ([Tossi et al., 1997]; [Wiegand et al., 2008]). Two-fold serial dilutions of peptides starting with 2 × stock concentration were prepared in sterile 10 mM sodium phosphate (Na-P) buffer, pH 7.4, with 0.1% BSA. Thus, final solutions contained 50% of Na-P diluted peptide and 50% of MH broth with bacteria. Bacteria for testing were grown overnight, then transferred into a fresh portion of 2.1% MH medium and additionally incubated for 2–3 h to obtain bacterial culture in its mid-logarithmic growth phase, which was diluted down to the final concentration of 1 × 10^6 CFU/ml. Concentration of bacteria in growth medium was calculated based on its absorbance at 620 nm.
After 20 h of incubation of AMPs with bacteria MICs were determined as lowest concentrations of AMPs completely preventing the visible growth of bacteria. Tests were performed in 60-well Terasaki microplates (10 µl end volume, V-shaped bottom; Sarstedt, Germany); dilutions in each test were made in triplicate. Final MIC values were calculated as medians based on the results of 3–5 independent experiments.

[4] = Standard acute toxicity test; assay type: in vivo; conditions: at the utilized doses (1 or 100 μg per animal); data not shown

| Substance | Dynamics of cytocidal action [1] | Apoptosis versus necrosis [2] | MIC [3] [µM] | Toxic action in acute toxicity test [4] |
| --- | --- | --- | --- | --- |
| protegrin 1 (RGGRLCYCRRRFCVCVGR-NH2; disulfide 8-13, 6-15; ends not checked; UniProt P32194 131-148, looked up) [PG-1] | swift and pronounced effect, observable in the first 30 min of exposure | prominent, dose-dependent prevalence of necrosis over apoptosis | – | – |
| RFRLPFRRIHPPPFVRIHPPPFYRRFL [ChBac3.4-1-COOH] | – | – | 2 to 4 | no visible signs of toxic action |
